{
  "source": "patent US20240317755A1",
  "about": "“HETEROCYCLIC COMPOUND, AND INTERMEDIATE THEREOF, PREPARATION METHOD THEREFOR AND USE THEREOF” (WUHAN LL SCIENCE AND TECHNOLOGY DEVELOPMENT CO., LTD., priority 2021, published 2024)",
  "key": {"[1]": {"test": "PK study of male SD rats after single intragastric administration (5% solutol)", "assay_type": "in vivo", "conditions": "rat, plasma, single PO compound 1-6 100 mg/kg; for AUC(0-inf) / AUC(0-t) / Cmax / MRT last / half-life: male, SD, po, 100 mg/kg", "experimental": "Effect Example 2: PK Study of Male SD Rats after Single Intragastric Administration of Compound (Using 5% Solutol as a Solvent)\nTo explore the time-plasma concentration curves of the compound in the plasma of male rats after single intragastric administration of compound 1 (125 mg/kg) and compound 1-6 (100 mg/kg) of the present disclosure and to obtain PK parameters (Cmax, Tmax, AUClast, AUCinf, T1/2, MRT, etc.) of the rats after single administration of compound 1 and compound 1-6 of the present disclosure.\n(§1) Rats: SD rats, SPF grade, 3 males, weight range of 180 to 200 g (source: Beijing Vital River Laboratory Animal Technology Co., Ltd., certificate number: 110011201109106028); • feeding conditions: ordinary animal house feeding, free access to food and water, 3 animals/cage rearing, 12/12 hours light/dark cycle adjustment (7:00 am/7:00 pm), temperature of 23±1° C.\nDispensing: After accurately weighing the compounds in the PO group, 5% solutol of the required volume was added thereto first, vortexed and mixed evenly for 2 min, sonicated for 30 min, stirred for 2 hours until no visible particles were visible to the naked eye, and the drug was administered while stirring, and the middle layer of the drug solution was taken for drug administration.\nas §1, with “220” for “180”, “300” for “200”, “SPF (Beijing) Biotechnology” for “Beijing Vital River Laboratory Animal Technology”, “110324200103216838);” for “110011201109106028);”\nDispensing: After accurately weighing compound 1-6 in the PO group, 5% solutol of the required volume was added first, vortexed and mixed evenly for 2 min, sonicated for 30 min, stirred for 3 hours until no visible particles were visible to the naked eye; • the drug solution was prepared and used immediately, and a sample of the drug solution must be retained for analysis, and two samples of 100 μL each of the upper, middle, and lower suspensions were taken and sent for analysis and testing on the same day.\nThe rats were randomly divided into 3 groups according to body weight, and the specific grouping and administration are as follows:\n• 1. The animals in the PO group were fasted overnight with free access to water before administration, and the food was returned 4 hours after administration; • 2. time points for blood sampling: the time points for blood sampling in the PO group were 0.167, 0.5, 1, 2, 3, 4, 6, 9, 12, and 24 hours.\n• 1. The animals in the PG group were fasted overnight with free access to water before administration, and the food was returned 4 hours after administration; • 2. time points for blood sampling: the time points for blood sampling in the PG group were 0.167, 0.5, 1, 2, 3, 4, 6, 9, 12, and 24 hours.\nAfter administration to rats, blood was collected from the orbital venous plexus according to the sampling time points. About 0.2 to 0.3 mL of blood was collected at each time point and transferred to an anticoagulant EP tube (containing 4 μL of EDTA-K2, 375 mg/mL). The tube was gently inverted three times and stored in an ice box (not exceeding 30 minutes). After centrifugation at 3500×g for 10 minutes at 4° C., the supernatant was transferred to a labeled EP tube. Hemolysis was observed and recorded, and the sample was sent to bioassay for testing. If the sample could not be analyzed the same day, the sample was stored at −80° C. until further testing (be careful not to perform multiple freezing/thawing processes). […]"}, "[2]": {"test": "Liver microsome half-life assay, mouse", "assay_type": "in vitro ADME", "conditions": "liver microsomes, 1 mg/mL liver microsomal protein, 37° C., read-out: Liver microsome T½ (min) Mouse", "experimental": "(§2) The in vitro metabolic stability of the compounds of the present disclosure was determined using warm incubation method of liver microsomes in various species. A proper amount of test compound was added to the liver microsomal reaction system (1 mg/mL liver microsomal protein, 25 U/mL glucose-6-phosphate dehydrogenase, 1 mM NADP, 6 mM D-glucose 6-phosphate, 5 mM MgCl2), and the reaction was started by warm incubation in a water bath at 37° C., then 100 μL of the reaction mixture at each time point was added to a centrifuge tube containing 400 μL of internal standard working solution precooled at 0° C. (containing a solution of 200 ng/mL dexamethasone, diclofenac, tolbutamide, and labetalol in acetonitrile), then the reaction was terminated, centrifuged at 4° C. and 10,000 g for 10 min, and the supernatant was taken into LC-MS for analysis and detection to obtain in vitro metabolic half-lives of the test compounds in liver microsomes of various species."}, "[3]": {"test": "Liver microsome half-life assay, monkey", "assay_type": "in vitro ADME", "conditions": "liver microsomes, 1 mg/mL liver microsomal protein, 37° C., read-out: Liver microsome T½ (min) Monkey", "experimental": "as §2"}, "[4]": {"test": "Liver microsome half-life assay, human", "assay_type": "in vitro ADME", "conditions": "human, liver microsomes; 1 mg/mL liver microsomal protein, 37° C.; read-out: Liver microsome T½ (min) Human", "experimental": "as §2"}, "[5]": {"conditions": "analyte compound 1-6, mean value"}},
  "data": [
    {"compound": "O=C(c1ccc(F)cc1C(F)(F)F)c1cnc2n1CCN(c1cn[nH]c(=O)c1Cl)C2", "note": "[Compound 1-6, 4-chloro-5-(3-(4-fluoro-2-(trifluoromethyl)benzoyl)-5,6-dihydroimidazo[1,2-a]pyrazin-7(8H)-yl)pyridazin-3(2H)-one]", "values": [
      {"measurement": "AUC(0-inf)", "setting": "[1]; analyte compound 1-6, animal 4", "value": 14500, "unit": "ng·h/mL"},
      {"measurement": "AUC(0-t)", "setting": "[1]; analyte compound 1-6, animal 4", "value": 13500, "unit": "ng·h/mL"},
      {"measurement": "Cmax", "setting": "[1]; analyte compound 1-6, animal 4", "value": 1210, "unit": "ng/mL"},
      {"measurement": "MRT last", "setting": "[1]; analyte compound 1-6, animal 4", "value": 8.03, "unit": "h"},
      {"measurement": "half-life", "setting": "[1]; analyte compound 1-6, animal 4", "value": 357, "unit": "min"},
      {"measurement": "AUC(0-inf)", "setting": "[1]; analyte compound 1-6, animal 5", "value": 11500, "unit": "ng·h/mL"},
      {"measurement": "AUC(0-t)", "setting": "[1]; analyte compound 1-6, animal 5", "value": 11200, "unit": "ng·h/mL"},
      {"measurement": "Cmax", "setting": "[1]; analyte compound 1-6, animal 5", "value": 1290, "unit": "ng/mL"},
      {"measurement": "MRT last", "setting": "[1]; analyte compound 1-6, animal 5", "value": 6.38, "unit": "h"},
      {"measurement": "half-life", "setting": "[1]; analyte compound 1-6, animal 5", "value": 245, "unit": "min"},
      {"measurement": "AUC(0-inf)", "setting": "[1]; analyte compound 1-6, animal 6", "value": 27500, "unit": "ng·h/mL"},
      {"measurement": "AUC(0-t)", "setting": "[1]; analyte compound 1-6, animal 6", "value": 18200, "unit": "ng·h/mL"},
      {"measurement": "Cmax", "setting": "[1]; analyte compound 1-6, animal 6", "value": 1150, "unit": "ng/mL"},
      {"measurement": "MRT last", "setting": "[1]; analyte compound 1-6, animal 6", "value": 10, "unit": "h"},
      {"measurement": "half-life", "setting": "[1]; analyte compound 1-6, animal 6", "value": 870, "unit": "min"},
      {"measurement": "AUC(0-inf)", "setting": "[1]; [5]", "value": 17800, "unit": "ng·h/mL"},
      {"measurement": "AUC(0-t)", "setting": "[1]; [5]", "value": 14300, "unit": "ng·h/mL"},
      {"measurement": "Cmax", "setting": "[1]; [5]", "value": 1220, "unit": "ng/mL"},
      {"measurement": "MRT last", "setting": "[1]; [5]", "value": 8.15, "unit": "h"},
      {"measurement": "half-life", "setting": "[1]; [5]", "value": 301, "unit": "min"},
      {"measurement": "Tmax", "setting": "[1]; analyte compound 1-6, animal 4", "value": 4, "unit": "h"},
      {"measurement": "half-life", "setting": "[2]", "value": 78, "unit": "min"},
      {"measurement": "half-life", "setting": "[3]", "value": 247, "unit": "min"},
      {"measurement": "half-life", "setting": "[4]", "value": 531, "unit": "min"}
    ]}
  ]
}
